Results taken from a melting point compilation (Tetko et al.; mined from patent text by program, amines drawn as free bases though some values may be those of a salt).

With `CCN(CC)c1ccc2nc(C)c(C#N)c(O)c2c1` the melting point was > 250 °C. Work on `CC(=O)c1cc(C(=O)O)c(=O)[nH]c1C` yielded a melting point of 238 to 241 °C. In the case of `COc1cccc2c1C(=O)c1c(O)c3c(c(O)c1C2=O)CC(O)(C(C)=O)CC3O` (stereo unspecified), the melting point is reported as 217 to 221 °C. Work on `CN(C)CCCN(c1ccccc1)c1ncccc1NC(=O)c1ccccc1[N+](=O)[O-]` yielded a melting point of 134 to 136 °C. With `COC(=O)c1c(C)nn(-c2ccccn2)c1S(N)(=O)=O` the melting point was 196 to 198 °C. In the case of `CCCN(CCC)c1c(CC)nn2c(-c3ccc(N(C)C)cc3Cl)cccc12`, the melting point is reported as 133 to 134 °C. Work on `CCOc1cc2c(cc1O)C(=O)CC1C2CCC2(C)C(O)CCC12` (stereo unspecified) yielded a melting point of 194 to 196 °C. With `CC1=C(CC(=O)N(C)O)c2cc(F)ccc2/C1=C\c1ccc(S(C)=O)cc1` (stereo unspecified) the melting point was 156 to 160 °C. With `CCOC(=O)c1cnc(-c2ccccc2OCC(C)C)[nH]c1=O` the melting point was 89 to 91 °C. Compound `CC(C)=CCn1cc(C)nc1[N+](=O)[O-]` has a melting point of 53 to 54 °C. Compound `CCOC(=O)c1cc2c(C)ccc(N(CC)S(=O)(=O)c3cccs3)c2[nH]1` has a melting point of 148 to 149 °C. `CC(Oc1ccc(Cl)cc1)c1nnc(N)s1` (stereo unspecified) showed a melting point of 162 to 166 °C. `O=c1ccn(C2OC(C(O)CO)C(O)C2O)c(=O)[nH]1` (stereo unspecified) showed a melting point of 175 to 176 °C. `Cc1ccc(C)n1-c1c(C(C)C)cc([N+](=O)[O-])cc1C(C)C` showed a melting point of 125 to 132 °C. `CCCCCCCCCC(CCC)CC(C)CC(O)c1cc(O)ccc1O` (stereo unspecified) gave a melting point of 123 °C. With `O=C1OC(O)c2c(F)ccc(F)c21` (stereo unspecified) the melting point was 125 to 128 °C. `Cc1ccc(C)c(OC(=O)c2c3ccccc3nc3ccccc23)c1` gave a melting point of 187 to 190 °C. Work on `COC(=O)Nc1nc2cnc3cccnc3c2n1CC(C)C` yielded a melting point of 195 to 197 °C. `N#CCc1cccc2c(-c3ccc(Br)cc3)nccc12` gave a melting point of 122 °C. With `CSCC1=C(c2ccccc2)C(=O)N(C(C)(C)C(=O)O)CO1` the melting point was 136 to 137 °C. With `N[C@@H]1CCN(c2ccc3c(NC(=O)CC4CCCCC4)c(Cl)ccc3n2)C1` the melting point was 201 to 206 °C. Work on `Cc1ccc(OC2CCN(CCc3c[nH]c4ccccc34)CC2)cc1` yielded a melting point of 115 to 117 °C. With `COc1ccc(C(=O)Nc2ccccc2)cc1NC(=S)Nc1ccccc1` the melting point was 174 to 176 °C. Work on `CS(=O)c1[nH]cc(Cc2ccccc2)c1[N+](=O)[O-]` (stereo unspecified) yielded a melting point of 189 to 190 °C. `O=C1Cc2ccccc2N1c1ccsc1` showed a melting point of 62 to 67 °C. In the case of `C[C@H](C(=O)O)n1ccn(-c2ccc(OCC(F)(F)C(F)F)cc2)c1=O`, the melting point is reported as 149 to 151 °C. Compound `O=C(O)c1cc(-c2cccc(C(F)(F)F)c2)c(=O)n2ccccc12` has a melting point of 228 to 229 °C. Work on `CC(C)C(N)CCCCCCCCC(C)(C)C(=O)O` (stereo unspecified) yielded a melting point of 156 to 159 °C. Compound `ClCCCn1c2ccccc2c2cc(-c3nc(C4CC4)no3)ncc21` has a melting point of 165 to 169 °C. In the case of `CCCCc1nc2c(N)nc3ccc(OCc4ccccc4)cc3c2n1CCCCN`, the melting point is reported as 161 to 164 °C. Work on `O=C(CN1C(=O)c2ccccc2C1=O)Nc1cccc(C(F)(F)F)c1` yielded a melting point of 235 °C. In the case of `Cc1cc(C(F)(F)F)c(-c2ccc(C[C@H](NC(=O)c3c(Cl)cccc3Cl)C(=O)O)cc2)c(=O)n1C`, the melting point is reported as 238 to 240 °C. Work on `CCC(C)NC(=O)Nc1ccccc1C(=O)OC` (stereo unspecified) yielded a melting point of 124 °C. Compound `COc1cc(C(C)C)c2c(c1)S(=O)(=O)N(COC(=O)c1c(C)cc(C)cc1C)C2=O` has a melting point of 137 to 138 °C. For `CC(=O)Oc1ccc(S(=O)(=O)ON=C(C#N)c2cccs2)cc1`, the melting point was 114 to 115 °C. Compound `CN1CCC(c2nn(-c3ccccc3C(F)(F)F)c3ccccc23)CC1` has a melting point of 110 to 111 °C. With `COc1ncncc1NS(=O)(=O)c1cccc(Cl)c1Cl` the melting point was 204 to 211 °C. In the case of `CC(=O)NC1(c2ccccc2)C2=NCC(C)(C)CN2c2ccccc21` (stereo unspecified), the melting point is reported as > 300 °C. Compound `c1ccc(-c2nnsc2-c2ccc3c(c2)OCO3)cc1` has a melting point of 107 to 109 °C. For `CCc1c(C(=O)c2cc(C)cc(C)c2)n(C/C=C\c2ccccc2)c(=O)[nH]c1=O`, the melting point was 98 to 99 °C. `Cc1cc(Nc2ccnc(Nc3ccc(S(=O)(=O)N(C)C4CCN(Cc5cncs5)CC4)cc3)n2)ccc1F` showed a melting point of 196 to 197 °C. With `Cc1cnn(C(C)(C)C(=O)N(C)C)c1-c1ccccc1` the melting point was 136 to 139 °C. For `CC(C)NC(=O)Oc1ccc2c(N(C)CCN3CCOCC3)noc2c1`, the melting point was 99 to 100 °C. With `O=C(c1cc(-n2cnnn2)ccc1O)N1CCC(CCO)(c2ccccc2)C1` (stereo unspecified) the melting point was 86 to 96 °C. For `O=C(O)C(=O)c1ccc(OCCOc2ccc(F)cc2)cc1`, the melting point was 97 to 98 °C. For `CC(C)(C)OC(=O)NC[C@H]1CN(c2ccc3c(c2)CCCCC3=O)C(=O)O1`, the melting point was 155 to 157 °C. `COc1cccc(COc2ncc(F)c(N/N=C/c3cccs3)n2)c1` showed a melting point of 136 to 139 °C. Compound `O=C(O)c1cn(CC(F)(F)F)c2c(F)c(F)c(F)cc2c1=O` has a melting point of 205 to 207 °C. With `OC1C(COCC(F)(F)F)OC(n2cnc3c(NC4CCOCC4)ncnc32)C1O` (stereo unspecified) the melting point was 80 to 82 °C. For `O=C1NCCNN1c1ccc(Cc2ccc(Cl)cc2)c(Cl)c1`, the melting point was 157 to 158 °C. Compound `CN(C)CCCOc1ccc(C(=O)c2c(-c3ccccc3)oc3ccccc23)cc1` has a melting point of 85 to 95 °C. With `Cc1cccc(N=C2NCCN2C(=O)Nc2ccc(F)cc2)c1` the melting point was 178 °C. Compound `CSc1ccc(NC(=N)c2ccc(F)cc2)cc1` has a melting point of 121 to 124 °C. With `Nc1ccc(-c2nc3ccc(Br)cc3s2)cc1` the melting point was 219 to 221 °C. In the case of `CCOC(=O)c1ccc(NC(C)=O)c(CN(CC)CC)c1`, the melting point is reported as 57 to 59 °C. For `Cc1nc(C)c(CSC(=O)c2ccccc2)c(O)c1O`, the melting point was 174 to 177 °C. For `C#CC[C@H](c1nc2cc(Cl)ccc2c(=O)n1Nc1ccccc1)N(CCCN)C(=O)c1ccc(C)c(F)c1F`, the melting point was 175 to 180 °C. In the case of `CN(C(=O)c1ccc2nonc2c1)C1CCCCC1=O` (stereo unspecified), the melting point is reported as 144 to 145 °C. Compound `CC(C)CCOC(=O)COc1cc(F)ccc1C(=O)NCc1cccc([N+](=O)[O-])c1` has a melting point of 65 to 68 °C. `CC(=O)Oc1ccc(C(=O)OCC[C@H](C)COC(=O)c2ccc(OC(C)=O)cc2)cc1` showed a melting point of 46 °C. With `CC(C)=Cn1ccnc1[N+](=O)[O-]` the melting point was 77 to 79 °C. `CC1(C)CCC(C)(C)c2cc(-c3ccc(O)cc3)ccc21` gave a melting point of 137 to 140 °C. Work on `CCOc1cc(N)c(Cl)cc1C(=O)NCC1CN(Cc2ccccc2)CCCO1` (stereo unspecified) yielded a melting point of 180 to 183 °C. `Nc1sc2c(c1C(=O)c1ccc3ccccc3c1)CCCC2` gave a melting point of 95 to 97 °C. In the case of `COc1ccc(COC(=O)C2N(c3c(C)cccc3C)C(=N)C(C)N2c2c(C)cccc2C)cc1` (stereo unspecified), the melting point is reported as 135 to 137 °C. With `Cc1oc2c(C)c(C)c(NCc3ccccc3)c(C)c2c1-c1ccc(C(C)C)cc1` the melting point was 94 to 95 °C. `CCc1cnc(N2CCC(c3nc4cc(-c5ccc(S(C)(=O)=O)cc5F)ccc4o3)CC2)nc1` showed a melting point of 247 to 250 °C. In the case of `O=C(CN1CCCC1=O)N1CCC(C2c3ncc(Br)cc3CCc3cc(Cl)cc(Br)c32)CC1` (single isomer, unassigned; (+)), the melting point is reported as 118 to 119 °C. Work on `OC1N=C(c2ccccc2F)c2cc(Cl)ccc2-c2ncncc21` (stereo unspecified) yielded a melting point of 186 to 188 °C. With `CCOc1ccc(NC=C(C(=O)Nc2ccccc2)c2cc(C)no2)cc1` the melting point was 114 to 115 °C. `CCCc1nc2c(N)nc3cc(-c4cccc(C(=O)N5CCOCC5)c4)ccc3c2s1` gave a melting point of 190 to 193 °C. For `N#Cc1c(-c2cccc(CN)c2)cc(-c2ccccc2O)nc1NC(=O)c1cccs1`, the melting point was 203 to 205 °C. For `Cc1c(C)c2c(c(C)c1NC(=O)CC(C)(C)C)C(c1ccc(CCCO)cc1)CO2` (stereo unspecified), the melting point was 119 to 120 °C. Compound `O=S(=O)(c1ccc(Br)cc1)N1CCNCC1` has a melting point of 102 to 104 °C. Compound `N#Cc1cncc(-c2ccc(OCc3ccccc3)cc2)c1Nc1ccc2[nH]ccc2c1` has a melting point of 163 to 165 °C. For `COC(=O)C(NC(=O)c1ccc(Cl)cc1)C(=O)OC`, the melting point was 146 to 148 °C. With `CCOC(=O)c1cnc2ccc(OC)cc2c1O` the melting point was > 260 °C. Compound `O=C(NCCc1ccc(Cl)cc1Cl)Nc1cccc2[nH]ccc12` has a melting point of 170 °C. Work on `NS(=O)(=O)c1cccc2c1ccc1nc(O)c(O)nc12` yielded a melting point of 420 °C. `CCCCc1nc(Cl)c(COC)n1Cc1ccc2oc(-c3ccccc3-c3nnn[nH]3)c(Br)c2c1` showed a melting point of 213 to 215 °C. With `CC(=O)OC1CSC(Oc2cncc(-c3ccc(F)nc3)c2)C(OC(C)=O)C1OC(C)=O` (stereo unspecified) the melting point was 167 to 169 °C. `Cn1cc([N+](=O)[O-])nc1C=O` gave a melting point of 129 °C. `O=C1C(=Cc2ccc(Cl)cc2)CCCC1=Cc1ccc(Cl)cc1` gave a melting point of 142 to 144 °C. `COc1cc(OC)c2c(=O)[nH]c(-c3ccc(OCCO)c(OC)c3)nc2c1` showed a melting point of 246 to 248 °C. With `CCCCCc1ccc(C(=O)CCCC(=O)O)cc1` the melting point was 104 to 106 °C. For `COc1ccc2cnc(=O)[nH]c2c1C(C)C`, the melting point was 188 to 190 °C. For `CCCCCCCCOc1cc(O)c2c(=O)c3ccccc3oc2c1`, the melting point was 98 °C. `CCCCCCCNC(=O)Nc1ccccc1C(=O)Nc1cccnc1` showed a melting point of 144 °C. Compound `O=C1C=C(OCCCCCCO)c2ccccc2C1=O` has a melting point of 96 to 98 °C. For `COC1=C(C(=O)c2ccc(C)cc2)C(c2ccc(OC(F)(F)F)cc2)N(c2ccc(C)nn2)C1=O` (stereo unspecified), the melting point was 206 to 207 °C. `CCn1cc(CC(=O)O)c(OCCCc2ccc(Cc3ccccn3)cc2OC(C)C)n1` gave a melting point of 97 to 98 °C. With `Cc1ccc(-c2nc(Sc3ccc(Cl)cc3)cc(N3CCN(CCO)CC3)n2)cc1` the melting point was 123 to 125 °C. In the case of `CC(C)(C)C(NC(=O)Cc1ccc(C#N)cc1)NC(=NC#N)Nc1cccc2ncccc12` (stereo unspecified), the melting point is reported as 194 to 196 °C. Compound `O=Cc1ccc2c(=O)c3ccccc3ccc2c1` has a melting point of 149 to 152 °C. Work on `CSc1nccc(-c2cc(C)ccc2NC(=O)C(C)C)n1` yielded a melting point of 134 to 135 °C. With `COc1ccc2[nH]c(SCc3nccc(N4CCCC4)n3)nc2c1` the melting point was 199 to 202 °C. `CC(C)(C)NCCOP1Oc2c(cc(C(C)(C)C)cc2C(C)(C)C)Cc2cc(C(C)(C)C)cc(C(C)(C)C)c2O1` showed a melting point of 189 to 192 °C. Compound `CCCCc1nc2cnc3ccc(O)cc3c2n1C` has a melting point of 219 to 220 °C. Compound `CC(=O)Nc1ccc2c(-c3ccccc3)c([N+](=O)[O-])oc2c1` has a melting point of 212 to 214 °C. `CCO/C=C/C(=O)Nc1cccc(Cl)c1OC` gave a melting point of 98 to 99 °C. With `CCn1cnc2c(Nc3cccc(C(=O)O)c3)nc(N[C@H]3CC[C@H](O)CC3)nc21` the melting point was 317 °C.
